The values below come from ChEMBL document CHEMBL4385641 (Bioorg Med Chem, 2019).

Data set [1] concerns the target T1, Cannabinoid receptor 1 (Homo sapiens, UniProt P21554). The data set can be described thus: Inverse agonist activity at human CB1 receptor expressed in CHOK1 cells co-expressing Galphaq16 assessed as apparent equilibrium constant after 90 secs by […]-4 AM dye-based FLIPR assay. The class given is cell-based.
For data set [2], the species on record is Homo sapiens. The data set can be described thus: Selectivity ratio of Ki for displacement of [3H]-CP55940 from human CB2 receptor expressed in CHO cell membranes to Ki for displacement of [3H]-CP55940 from human CB1 receptor expressed in CHO cell membranes. (Displacement assays read how much labelled ligand stays bound in the presence of the test substance.)

For data set [3], the target named is Cannabinoid receptor 2 (Homo sapiens, UniProt P34972). The data set can be described thus: Displacement of [3H]-CP55940 from human CB2 receptor expressed in CHO cell membranes.
Chain of Cannabinoid receptor 2 (P34972 whole entry): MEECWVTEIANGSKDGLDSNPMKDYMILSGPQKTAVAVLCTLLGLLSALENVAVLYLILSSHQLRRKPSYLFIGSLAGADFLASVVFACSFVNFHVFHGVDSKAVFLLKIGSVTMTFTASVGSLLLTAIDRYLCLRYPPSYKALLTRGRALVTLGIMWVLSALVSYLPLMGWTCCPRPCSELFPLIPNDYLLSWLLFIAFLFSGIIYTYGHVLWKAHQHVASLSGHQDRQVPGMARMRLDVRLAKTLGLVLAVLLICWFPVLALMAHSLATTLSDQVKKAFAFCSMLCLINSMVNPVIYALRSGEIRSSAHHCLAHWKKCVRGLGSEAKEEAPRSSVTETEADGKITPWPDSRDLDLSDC
Data set [4] deals with T1, Cannabinoid receptor 1. The experiment in a line: Displacement of [3H]-CP55940 from human CB1 receptor expressed in CHO cell membranes.
A short description of data set [5]: Permeability across apical to basolateral side in MDCK-MDR1 cells at 10 uM incubated for 1 hr by mass spectrometric method. The conditions noted are these: dog, mdck-mdr1, 1 h. The class given is ADME, cell-based, Canis lupus familiaris.

T1 sequence (P21554 whole entry): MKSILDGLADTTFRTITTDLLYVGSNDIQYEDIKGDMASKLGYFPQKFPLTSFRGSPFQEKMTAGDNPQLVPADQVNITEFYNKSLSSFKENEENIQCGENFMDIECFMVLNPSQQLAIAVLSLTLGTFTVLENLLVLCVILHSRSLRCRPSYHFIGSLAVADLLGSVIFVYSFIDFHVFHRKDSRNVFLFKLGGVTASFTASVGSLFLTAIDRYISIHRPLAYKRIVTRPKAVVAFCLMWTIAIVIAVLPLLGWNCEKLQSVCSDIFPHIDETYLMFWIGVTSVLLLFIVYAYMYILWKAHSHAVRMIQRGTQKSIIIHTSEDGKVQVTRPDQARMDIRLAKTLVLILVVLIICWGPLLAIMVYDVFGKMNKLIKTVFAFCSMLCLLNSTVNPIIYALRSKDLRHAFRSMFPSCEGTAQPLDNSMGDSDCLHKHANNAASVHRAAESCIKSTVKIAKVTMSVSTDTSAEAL

What is called Ki is the dissociation constant of the complex between target and ligand, obtained from inhibition or displacement. Read a high Ki as weaker binding. Regarding `O=S(=O)(NC1CCN(c2ncnc3c2nc(-c2ccccc2Cl)n3-c2ccc(C(F)(F)F)nc2)CC1)c1ccccc1F`, in data set [1], the Ke(app) was 0.5 nM. Moreover, the Ratio Ki in data set [2] was 100. In addition, the values for the Ki in data set [3] and in data set [4] were 400 nM and 4 nM, respectively.
On to `O=C(NC1CCN(c2ncnc3c2nc(-c2ccccc2Cl)n3-c2ccc(Cl)cc2)CC1)C1CCS(=O)(=O)CC1`, for which the Ke(app) in data set [1] was above 10000 nM.
As for `Cn1cc(-n2c(-c3ccccc3Cl)nc3c(N4CCC(NS(=O)(=O)c5ccc(F)c(F)c5)CC4)ncnc32)cn1`, the Ke(app) in data set [1] was 140 nM.
Consider `CN(Cc1ccccc1)C1CCN(c2ncnc3c2nc(-c2ccccc2Cl)n3-c2ccc(Cl)cc2)CC1`, for which the Ke(app) in data set [1] is 34 nM. In data set [2], the Ratio Ki amounted to 64. The molecule further returned a Ki in data set [3] of 2700 nM.
For the molecule `COCCOC(=O)NC1CCN(c2ncnc3c2nc(-c2ccccc2Cl)n3-c2ccc(Cl)cc2)CC1`, the Ke(app) in data set [1] was 6 nM. Also, in data set [2], the Ratio Ki was above 200. In addition, the inhibition constant Ki in data set [3] is above 5000 nM; in data set [4], 17 nM. In addition, the permeability in data set [5] is on record as 13%.
On to `O=S(=O)(CC1CCCCC1)NC1CCN(c2ncnc3c2nc(-c2ccccc2Cl)n3-c2ccc(Cl)cc2)CC1`, for which the Ke(app) in data set [1] was 31 nM. For the same molecule, the Ratio Ki in data set [2] is above 1100. The figures for the Ki in data set [3] and in data set [4] were above 10000 nM and 9 nM, respectively. In data set [5], this molecule displayed a permeability below 0.1%.
`O=C(CC1CCOC1)NC1CCN(c2ncnc3c2nc(-c2ccccc2Cl)n3-c2ccc(Cl)cc2)CC1` (centres undefined): the Ke(app) in data set [1] is 1000 nM.
The same measure, in the same setting: in the case of `Cn1nnnc1CCC(=O)NC1CCN(c2ncnc3c2nc(-c2ccccc2Cl)n3-c2ccc(Cl)cc2)CC1` it was above 10000 nM.
For the molecule `Clc1ccc(-n2c(-c3ccccc3Cl)nc3c(N4CCC(c5nc6ccccc6[nH]5)CC4)ncnc32)cc1`, the Ke(app) in data set [1] was 12 nM. In data set [2], the Ratio Ki stood at 18. Further, the Ki in data set [3] was determined as 830 nM.
For the molecule `CN1CCC(COC(=O)NC2CCN(c3ncnc4c3nc(-c3ccccc3Cl)n4-c3ccc(Cl)cc3)CC2)CC1`, the Ke(app) in data set [1] is 1500 nM.
On to `O=C(NC1CCN(c2ncnc3c2nc(-c2ccccc2Cl)n3-c2ccc(C(F)(F)F)nc2)CC1)c1ccccc1`, for which the Ke(app) in data set [1] was 19 nM. In data set [2], the Ratio Ki amounted to 92. For the same molecule, the inhibitory constant (Ki) in data set [3] is 740 nM; in data set [4], 8 nM. Besides, the permeability in data set [5] was determined as 3%.
Consider `Cc1cc(-n2c(-c3ccccc3Cl)nc3c(N4CCC(NS(=O)(=O)c5ccc(F)c(F)c5)CC4)ncnc32)no1`, for which the Ke(app) in data set [1] was 56 nM. Besides, in data set [2], the Ratio Ki is above 20. Further, the figures for the Ki in data set [3] and in data set [4] were above 10000 nM and 420 nM, respectively.
Consider `CC(C)(O)CC(=O)NC1CCN(c2ncnc3c2nc(-c2ccccc2Cl)n3-c2ccc(Cl)cc2)CC1`, for which the Ke(app) in data set [1] is 1700 nM.
In the case of `Clc1ccc(-n2c(-c3ccccc3Cl)nc3c(N4CCC(NCc5ccncc5)CC4)ncnc32)cc1`, the Ke(app) in data set [1] was 580 nM.
As to `CC(C)(C)OCCC(=O)NC1CCN(c2ncnc3c2nc(-c2ccccc2Cl)n3-c2ccc(Cl)cc2)CC1`, the Ke(app) in data set [1] was 1.7 nM. In addition, the Ratio Ki in data set [2] stood at 820. Besides, the values for the Ki in data set [3] and in data set [4] were 4900 nM and 6 nM, respectively. The permeability in data set [5] came to 20%.
The like results for `O=C(NC1CCN(c2ncnc3c2nc(-c2ccccc2Cl)n3-c2ccc(Cl)cc2)CC1)c1ccc(F)c(F)c1` were, in that order, 0.7 nM, 2000, 5900 nM, 3 nM and 0.2%.
Turning to `O=C(NC1CCN(c2ncnc3c2nc(-c2ccccc2Cl)n3-c2ccc(Cl)cc2)CC1)C1CCOCC1`, in data set [1], the Ke(app) is 440 nM.
With `NC(=O)c1ccc(-n2c(-c3ccccc3Cl)nc3c(N4CCC(NS(=O)(=O)c5ccc(F)c(F)c5)CC4)ncnc32)cc1`, in data set [1], the Ke(app) is 330 nM.
`O=C(NC1CCN(c2ncnc3c2nc(-c2ccccc2Cl)n3-c2ccc(Cl)cc2)CC1)c1ccc(F)cc1`: the Ke(app) in data set [1] is 1.1 nM. Besides, the Ratio Ki in data set [2] amounted to 5000. The inhibitory constant (Ki) is 10000 nM in data set [3] and 2 nM in data set [4]. This molecule also showed a permeability in data set [5] of 0.2%.
Regarding `O=S(=O)(NC1CCN(c2ncnc3c2nc(-c2ccccc2Cl)n3-c2ccc(Cl)cc2)CC1)c1ccc(F)cc1`, the Ke(app) in data set [1] is 1.1 nM. Further, in data set [2], the Ratio Ki was above 2000. In addition, the Ki turned out to be 9000 nM in data set [3] and 3.3 nM in data set [4]. In data set [5], this molecule displayed a permeability of 0.1%.
For the molecule `O/N=C(\c1ccc(F)cc1)C1CCN(c2ncnc3c2nc(-c2ccccc2Cl)n3-c2ccc(Cl)cc2)CC1` (stereo in doubt; 20), in data set [1], the Ke(app) was 20 nM. For the same molecule, the Ratio Ki in data set [2] is above 2000.
On to `O=C(NC1CCN(c2ncnc3c2nc(-c2ccccc2Cl)n3-c2ccc(Cl)cc2)CC1)c1ccccn1`, for which the Ke(app) in data set [1] was 140 nM.
For the molecule `CN(Cc1ccc(F)cc1)C1CCN(c2ncnc3c2nc(-c2ccccc2Cl)n3-c2ccc(Cl)cc2)CC1`, the Ke(app) in data set [1] was 460 nM.
On the same count and under the same terms, the same measure for `O=S(=O)(NC1CCN(c2ncnc3c2nc(-c2ccccc2Cl)n3-c2cc(C(F)(F)F)[nH]n2)CC1)c1ccc(F)c(F)c1`: 5000 nM.
In the case of `O/N=C(\c1ccc(F)cc1)C1CCN(c2ncnc3c2nc(-c2ccccc2Cl)n3-c2ccc(Cl)cc2)CC1` (stereo in doubt; 21), the Ke(app) in data set [1] was 21 nM. The Ratio Ki in data set [2] was above 1400.
As for `COCCC(=O)NC1CCN(c2ncnc3c2nc(-c2ccccc2Cl)n3-c2ccc(Cl)cc2)CC1`, in data set [1], the Ke(app) was 370 nM.
As for `Fc1ccc(CNC2CCN(c3ncnc4c3nc(-c3ccccc3Cl)n4-c3ccc(Cl)cc3)CC2)cc1`, in data set [1], the Ke(app) is 210 nM.
`Clc1ccc(-n2c(-c3ccccc3Cl)nc3c(N4CCC(Nc5ccncc5)CC4)ncnc32)cc1`: the Ke(app) in data set [1] is 100 nM.
With `O=C(NC1CCN(c2ncnc3c2nc(-c2ccccc2Cl)n3-c2ccc(Cl)cc2)CC1)OCc1ccccc1`, the Ke(app) in data set [1] is 3 nM. For the same molecule, in data set [2], the Ratio Ki amounted to 180. Further, the Ki was 710 nM in data set [3] and 4 nM in data set [4].
Take `O=S(=O)(NC1CCN(c2ncnc3c2nc(-c2ccccc2Cl)n3-c2ccc(Cl)cc2)CC1)c1ccc(F)cc1F`: in data set [1], the Ke(app) is 2 nM. Also, the Ratio Ki in data set [2] was above 5000. The molecule also came in with an inhibition constant Ki in data set [3] above 10000 nM. In data set [5], this molecule registered a permeability of 0.1%.
As to `O=C(NC1CCN(c2ncnc3c2nc(-c2ccccc2Cl)n3-c2ccc(Cl)cc2)CC1)OCC1COC1`, the Ke(app) in data set [1] was 77 nM.
For `O=S(=O)(NC1CCN(c2ncnc3c2nc(-c2ccccc2Cl)n3-c2ccc(OC(F)F)nc2)CC1)c1ccccc1F`, the Ke(app) in data set [1] was 0.7 nM. The Ratio Ki in data set [2] was determined as 120. Moreover, the inhibition constant Ki in data set [3] is 190 nM; in data set [4] it was 1.6 nM.
As for `Clc1ccc(-n2c(-c3ccccc3Cl)nc3c(N4CCC(NCc5ccccc5)CC4)ncnc32)cc1`, in data set [1], the Ke(app) was 150 nM.
In the case of `O=S(=O)(NC1CCN(c2ncnc3c2nc(-c2ccccc2Cl)n3-c2ccc(C(F)(F)F)nc2)CC1)c1ccc(F)c(F)c1`, the Ke(app) in data set [1] is 1 nM. In addition, in data set [2], the Ratio Ki is above 600. The inhibitory constant (Ki) is above 6000 nM in data set [3] and 10 nM in data set [4].
Turning to `O=C(CC1CCOCC1)NC1CCN(c2ncnc3c2nc(-c2ccccc2Cl)n3-c2ccc(Cl)cc2)CC1`, in data set [1], the Ke(app) was 510 nM.
On the same count and under the same terms, the same measure for `O=C(NC1CCN(c2ncnc3c2nc(-c2ccccc2Cl)n3-c2ccc(Cl)cc2)CC1)OC1CCOCC1`: 320 nM; for `Nc1ccc(-n2c(-c3ccccc3Cl)nc3c(N4CCC(NS(=O)(=O)c5ccc(F)c(F)c5)CC4)ncnc32)cn1`: above 10000 nM; for `Clc1ccc(-n2c(-c3ccccc3Cl)nc3c(N4CCC(Nc5ncccn5)CC4)ncnc32)cc1`: 43 nM.
For the molecule `O=C(NC1CCN(c2ncnc3c2nc(-c2ccccc2Cl)n3-c2ccc(Cl)cc2)CC1)OC1COC1`, the Ke(app) in data set [1] is 92 nM.
Same read-out and setting: in the case of `O=C(CN1CCCCC1)NC1CCN(c2ncnc3c2nc(-c2ccccc2Cl)n3-c2ccc(Cl)cc2)CC1` it was 220 nM; in that of `CCOCC(=O)NC1CCN(c2ncnc3c2nc(-c2ccccc2Cl)n3-c2ccc(Cl)cc2)CC1`, 240 nM.
For `O=C(NC1CCN(c2ncnc3c2nc(-c2ccccc2Cl)n3-c2ccc(Cl)cc2)CC1)OC1CCC1`, the Ke(app) in data set [1] is 1 nM. Also, the Ratio Ki in data set [2] came to 1800. The Ki amounted to 1050 nM in data set [3] and 0.6 nM in data set [4].
With `Cn1ccc(-n2c(-c3ccccc3Cl)nc3c(N4CCC(NS(=O)(=O)c5ccc(F)c(F)c5)CC4)ncnc32)n1`, in data set [1], the Ke(app) was 120 nM.
As for `O=S(=O)(NC1CCN(c2ncnc3c2nc(-c2ccccc2Cl)n3-c2ccc(F)cc2)CC1)c1ccccc1F`, the Ke(app) in data set [1] was 21 nM. Also, the Ratio Ki in data set [2] was above 3000. Further, the Ki is above 10000 nM in data set [3] and 2.6 nM in data set [4].
In the case of `CC(=O)Nc1ccc(-n2c(-c3ccccc3Cl)nc3c(N4CCC(NS(=O)(=O)c5ccc(F)c(F)c5)CC4)ncnc32)cn1`, in data set [1], the Ke(app) is 2700 nM.
With `O=C(NC1CCN(c2ncnc3c2nc(-c2ccccc2Cl)n3-c2ccc(Cl)cc2)CC1)C1CCSCC1`, the Ke(app) in data set [1] was 26 nM. Further, the Ratio Ki in data set [2] stood at 630. The results for the Ki in data set [3] and in data set [4] were 1900 nM and 3 nM, respectively.
As for `O=C(NC1CCN(c2ncnc3c2nc(-c2ccccc2Cl)n3-c2ccc(Cl)cc2)CC1)C1CCOC1` (centres undefined), in data set [1], the Ke(app) is 150 nM.
Same read-out and setting: the same measure for `O=C(CN1CCOCC1)NC1CCN(c2ncnc3c2nc(-c2ccccc2Cl)n3-c2ccc(Cl)cc2)CC1`: 1100 nM.
Regarding `CC(C)(C)CC(=O)NC1CCN(c2ncnc3c2nc(-c2ccccc2Cl)n3-c2ccc(Cl)cc2)CC1`, in data set [1], the Ke(app) is 0.3 nM. For the same molecule, the Ratio Ki in data set [2] amounted to 75. Further, the values for the inhibitory constant (Ki) in data set [3] and in data set [4] were 15 nM and 0.2 nM, respectively.
Regarding `CS(=O)(=O)CCC(=O)NC1CCN(c2ncnc3c2nc(-c2ccccc2Cl)n3-c2ccc(Cl)cc2)CC1`, the Ke(app) in data set [1] is 6000 nM.
